Like-named read-outs stand apart in the source and are kept apart here.
Tests used:
Format in all cases: physicochemical
[1] = Total degradation products of porcine insulin formulations by C18 reverse-phase HPLC
Method: Six test formulations were prepared at proline concentrations of 0, 1.6 M and 2.8 M with acetone concentrations at 0 and 3 mg/ml, as listed in the following table. Those test formulations were stored at room temperature in the dark. At times, aliquots were withdrawn to be analyzed on C18 reverse-phase HPLC to measure total degradation products, as summarized in the table below.

[2] = Visual precipitation of insulin solutions stored at room temperature in the dark
Method: Insulin was dissolved in 0.10 N hydrochloric acid (5 μL per milligram of insulin) and made into a series of solutions at its concentration of 4.0 mg/ml with various additives, and the pH was adjusted to pH 7.4 using 0.05 N sodium hydroxide. Samples were kept at room temperature (25° C.) in the dark.
Zinc-free recombinant human insulin (16 mg) was dissolved in 0.10 N hydrochloric acid (70 microliters), and to this insulin was added 6.0 ml of the above proline solution. This stock solution was further made into a series of solutions at its concentration of 2.0 mg/ml with various additives at pH 7.4. Samples were kept at room temperature (25° C.) in the dark.
After six months, there were no precipitates visible at the bottom, and the solutions were all visually clear. As shown in Example 1 above, insulin without proline forms precipitates in a few days.
Repeat preparation as in Example 2 at proline concentration of 1.0 M, 1.5 M, 2.4 M and 7.0 M, without glycerol and m-cresol. All samples were stored at room temperature in the dark over six month to find no visible insulin precipitate.

[3] = Covalent insulin dimers quantified by SEC HPLC during storage; conditions: zinc-free insulin and zinc-insulin with EDTA, Example 4
Method: A group of stock solutions were prepared: proline (6.25 M) in water, EDTA (0.10 M, pH 7.4), glycerol(320 mg/ml) containing m-Cresol (25 mg/ml) in water, sodium insulin(10 mg/ml) in phosphate buffer (25 mM, pH 7.4). Eight formulations were prepared using those stock solutions as in the table below.
All the eight formulations were kept at room temperature in the dark. At times, aliquots were withdrawn for HPLC analysis (Injection volume: 0.10 ml).
During the storage, covalent insulin dimers were quantified by SEC HPLC, and the results are summarized below.
Column: Protein Pak, 125 Å, Waters, WAT084601
Mobile Phase: 20% Acetonitrile, 15% acetic acid, 65% water

For CC(C)=O [acetone], the “Effect on total amount of degradation side products” value ([1]; porcine insulin, period of 8 weeks, Example 5) was “further enhances the stabilizing effect of proline”.

In the case of N=C(N)NCCC[C@H](N)C(=O)O [arginine], the “Effect of arginine on precipitation of monomeric insulin” value ([2]; arginine at 0.5 M, Example 1) was “has ability to deter monomeric insulin from precipitation”.

For O=C(O)[C@@H]1CCCN1 [proline], the “Effect of proline on precipitation of monomeric insulin” value ([2]; proline 2.4 M, Example 2) was “ability to deter monomeric insulin from precipitation”, the “Effect on total amount of degradation side products” value [1] was “reduces total amount of degradation side products” and the “Effect on formation of high molecular weight insulin degradation side products” value [3] was “reduces formation of high molecular weight insulin degradation side products”.

Reference: patent US20140024582A1, “STABLE INSULIN FORMULATIONS AND METHODS OF MAKING AND USING THEREOF” (Genecopoeia, Inc., priority 2010, published 2014)
